Measured values published in EPA's CvTdb concentration-time database.

Experiments:
Rat [1] = test: concentration in plasma after dosing; settings: 24 h; dosed: Gemfibrozil; 50 mg/kg; oral; Male; Sprague-Dawley
Rat [2] = test: concentration in plasma after dosing; settings: 2 h; dosed: Gemfibrozil; 50 mg/kg; oral; Male; Sprague-Dawley
Rat [3] = test: concentration in plasma after dosing; settings: 2 h; dosed: Gemfibrozil; 100 mg/kg; oral; Male; Sprague-Dawley
Rat [4] = test: concentration in brain after dosing; settings: 2 h; dosed: 2-Methyltetrahydrofuran; 40 mg/kg; iv; Female; Harlan Sprague Dawley
Rat [5] = test: concentration in plasma after dosing; settings: 1.5 h; dosed: 2-Methyltetrahydrofuran; 40 mg/kg; iv; Male; Harlan Sprague Dawley
Rat [6] = test: concentration in brain after dosing; settings: 7 min; dosed: 2-Methyltetrahydrofuran; 40 mg/kg; iv; Male; Harlan Sprague Dawley
Rat [7] = test: concentration in plasma after dosing; settings: 1.5 h; dosed: 2-Methyltetrahydrofuran; 40 mg/kg; iv; Male; Harlan Sprague Dawley; remark: listed apart in the source
Rat [8] = test: concentration in brain after dosing; settings: 0.2 h; dosed: 2-Methyltetrahydrofuran; 40 mg/kg; iv; Male; Harlan Sprague Dawley
rat [9] = test: amount in urine after dosing (umol); settings: inhalation, duration: 4 hr, F344 (Harlan Winkelmann)
Rat [10] = test: concentration in brain after dosing; settings: 3360 h; dosed: Perfluorooctane Sulfonate; 20 mg/kg; oral; Male; Harlan Sprague Dawley
Rat [11] = test: concentration in brain after dosing; settings: 3360 h; dosed: Perfluorooctane Sulfonate; 20 mg/kg; oral; Male; Harlan Sprague Dawley; remark: listed apart in the source
Rat [12] = test: concentration in brain after dosing; settings: 1848 h; dosed: Perfluorooctane Sulfonate; 20 mg/kg; oral; Male; Harlan Sprague Dawley
Rat [13] = test: concentration in plasma after dosing; settings: dosed: Perfluorooctane Sulfonate, 2 mg/kg, iv, Male, F344
Rat [14] = test: concentration in liver after dosing; settings: 6 h; dosed: Perfluorooctane Sulfonate; 20 mg/kg; oral; Male; Harlan Sprague Dawley
Rat [15] = test: concentration in kidney after dosing; settings: 864 h; dosed: Perfluorooctane Sulfonate; 2 mg/kg; oral; Female; Harlan Sprague Dawley
Rat [16] = test: concentration in kidney after dosing; settings: 24 h; dosed: Perfluorooctane Sulfonate; 2 mg/kg; oral; Female; Harlan Sprague Dawley
Rat [17] = test: concentration in plasma after dosing; settings: dosed: Perfluorooctane Sulfonate, 2 mg/kg, iv, Female, F344
Rat [18] = test: concentration in liver after dosing; settings: 24 h; dosed: Perfluorooctane Sulfonate; 2 mg/kg; oral; Female; Harlan Sprague Dawley
Rat [19] = test: concentration in plasma after dosing; settings: 1 h; dosed: Perfluorohexanoic Acid; 80 mg/kg; oral; Male; Harlan Sprague Dawley
Rat [20] = test: concentration in liver after dosing; settings: 6 h; dosed: Perfluorohexanoic Acid; 80 mg/kg; oral; Male; Harlan Sprague Dawley
Rat [21] = test: concentration in plasma after dosing; settings: dosed: Perfluorohexanoic Acid, 40 mg/kg, iv, Male, F344
Rat [22] = test: concentration in plasma after dosing; settings: dosed: Perfluorohexanoic Acid, 80 mg/kg, oral, Male, Harlan Sprague Dawley
Rat [23] = test: concentration in liver after dosing; settings: 3 h; dosed: Perfluorohexanoic Acid; 80 mg/kg; oral; Male; Harlan Sprague Dawley
Rat [24] = test: concentration in liver after dosing; settings: 0.5 h; dosed: Fluorotelomer alcohol 8+2; 80 mg/kg; oral; Female; Harlan Sprague Dawley
Rat [25] = test: concentration in brain after dosing; settings: 6 h; dosed: Fluorotelomer alcohol 8+2; 80 mg/kg; oral; Female; Harlan Sprague Dawley
Rat [26] = test: concentration in plasma after dosing; settings: dosed: 678-39-7, 40 mg/kg, iv, Female, Harlan Sprague-Dawley
Rat [27] = test: concentration in liver after dosing; settings: 3 h; dosed: Fluorotelomer alcohol 8+2; 24 mg/kg; oral; Male; Harlan Sprague Dawley
Rat [28] = test: concentration in liver after dosing; settings: 1 h; dosed: Fluorotelomer alcohol 8+2; 24 mg/kg; oral; Male; Harlan Sprague Dawley
Rat [29] = test: concentration in brain after dosing; settings: 0.5 h; dosed: Fluorotelomer alcohol 8+2; 24 mg/kg; oral; Male; Harlan Sprague Dawley
Rat [30] = test: concentration in plasma after dosing; settings: dosed: Fluorotelomer alcohol 8+2, 12 mg/kg, oral, Male, Harlan Sprague Dawley
Rat [31] = test: concentration in brain after dosing; settings: 6 h; dosed: Fluorotelomer alcohol 8+2; 80 mg/kg; oral; Female; Harlan Sprague Dawley; remark: listed apart in the source
Rat [32] = test: concentration in brain after dosing; settings: 12 h; dosed: Fluorotelomer alcohol 8+2; 24 mg/kg; oral; Male; Harlan Sprague Dawley
Rat [33] = test: concentration in kidney after dosing; settings: 3 h; dosed: Fluorotelomer alcohol 8+2; 24 mg/kg; oral; Male; Harlan Sprague Dawley
Rat [34] = test: concentration in plasma after dosing; settings: 0.25 h; dosed: 678-39-7; 12 mg/kg; iv; Male; F344
Rat [35] = test: concentration in liver after dosing; settings: 6 h; dosed: Fluorotelomer alcohol 8+2; 24 mg/kg; oral; Male; Harlan Sprague Dawley
Rat [36] = test: concentration in brain after dosing; settings: 3 h; dosed: Fluorotelomer alcohol 8+2; 80 mg/kg; oral; Female; Harlan Sprague Dawley

Cc1ccc(C)c(OCCCC(C)(C)C(=O)O)c1 [Gemfibrozil]
Settings | concentration in plasma [µg/mL]
Rat [1] | 0.754
Rat [2] | 1.97
Rat [3] | 5.12

CC1CCCO1 (configuration not stated) [2-Methyltetrahydrofuran]
Settings | concentration in brain [µg/mL] | concentration in plasma [µg/mL]
Rat [4] | 9.94 | –
Rat [5] | – | 11
Rat [6] | 34 | –
Rat [7] | – | 14.5
Rat [8] | 24.9 | –

CC(O)C(C)(C)O (configuration not stated) [2-methyl-2,3-butanediol]
amount in urine, rat [9], dosed: tert-amyl methyl ether
Settings | 3.8 ppm | 38.4 ppm
5.961 h | – | 1.13
5.981 h | 0.237 | –
11.86 h | 0.262 | –
12.08 h | – | 2.25
17.94 h | 0.179 | 1.18
23.82 h | 0.0479 | –
23.95 h | – | 0.366
29.9 h | 0.0229 | –
29.96 h | – | 0.165
35.73 h | 0.0302 | –
36.08 h | – | 0.225
41.81 h | 0.024 | –
41.88 h | – | 0.175
47.74 h | 0.0115 | –
47.95 h | – | 0.084

CC(C)(O)C(=O)O [2-hydroxyisobutyrate]
rat [9]
Settings | amount in urine
5.92 h, dosed: ethyl tert-butyl ether, 4.5 ppm | 0.229
5.923 h, dosed: methyl tert-butyl ether, 38.7 ppm | 1.23
5.99 h, dosed: ethyl tert-butyl ether, 40.6 ppm | 1.23
11.86 h, dosed: ethyl tert-butyl ether, 4.5 ppm | 0.657
11.94 h, dosed: ethyl tert-butyl ether, 40.6 ppm | 3.65
11.94 h, dosed: methyl tert-butyl ether, 38.7 ppm | 6.37
11.97 h, dosed: methyl tert-butyl ether, 4.5 ppm | 0.837
17.79 h, dosed: ethyl tert-butyl ether, 4.5 ppm | 1.03
17.99 h, dosed: methyl tert-butyl ether, 38.7 ppm | 2.57
18.01 h, dosed: methyl tert-butyl ether, 4.5 ppm | 0.625
18.03 h, dosed: ethyl tert-butyl ether, 40.6 ppm | 5.39
23.79 h, dosed: ethyl tert-butyl ether, 4.5 ppm | 0.405
23.95 h, dosed: methyl tert-butyl ether, 4.5 ppm | 0.205
23.95 h, dosed: methyl tert-butyl ether, 38.7 ppm | 0.915
23.98 h, dosed: ethyl tert-butyl ether, 40.6 ppm | 0.922
29.73 h, dosed: ethyl tert-butyl ether, 4.5 ppm | 0.355
29.93 h, dosed: ethyl tert-butyl ether, 40.6 ppm | 0.521
29.93 h, dosed: methyl tert-butyl ether, 38.7 ppm | 0.315
29.96 h, dosed: methyl tert-butyl ether, 4.5 ppm | 0.239

O=S(=O)([O-])C(F)(F)C(F)(F)C(F)(F)C(F)(F)C(F)(F)C(F)(F)C(F)(F)C(F)(F)F [Perfluorooctane Sulfonate]
Settings | concentration in brain [ng/g] | concentration in kidney [ng/g] | concentration in liver [ng/g]
Rat [10] | 890 | – | –
Rat [11] | 1260 | – | –
Rat [12] | 660 | – | –
Rat [14] | – | – | 164000
Rat [15] | – | 2960 | –
Rat [16] | – | 14600 | –
Rat [18] | – | – | 20600

concentration in plasma [ng/mL]
Settings | 1 h | 6 h | 528 h | 3216 h
Rat [13] | – | 4060 | 1840 | 96.4
Rat [17] | 4870 | – | 2180 | –

O=C(O)C(F)(F)C(F)(F)C(F)(F)C(F)(F)C(F)(F)F [Perfluorohexanoic Acid]
Settings | concentration in liver [ng/g] | concentration in plasma [µg/mL]
Rat [19] | – | 152
Rat [20] | 9200 | –
Rat [23] | 37400 | –

concentration in plasma
Settings | 0.25 h | 3 h | 5 min | 24 h
Rat [21] | – | 34.9 ng/mL | 18500 ng/mL | –
Rat [22] | 156 µg/mL | – | – | 0.416 µg/mL

O=C(O)CCC(F)(F)C(F)(F)C(F)(F)C(F)(F)C(F)(F)C(F)(F)C(F)(F)F [Fluorotelomer acid 7+3]
Settings | concentration in brain [ng/g] | concentration in kidney [ng/g] | concentration in liver [ng/g] | concentration in plasma [ng/mL]
Rat [24] | – | – | 934 | –
Rat [25] | 1040 | – | – | –
Rat [27] | – | – | 2780 | –
Rat [28] | – | – | 693 | –
Rat [29] | 81.2 | – | – | –
Rat [31] | 1470 | – | – | –
Rat [32] | 98.2 | – | – | –
Rat [33] | – | 1320 | – | –
Rat [34] | – | – | – | 51.7
Rat [35] | – | – | 1860 | –
Rat [36] | 1310 | – | – | –

concentration in plasma [ng/mL]
Settings | 1 h | 24 h | 48 h | 192 h
Rat [26] | 1350 | 347 | – | –
Rat [30] | – | – | 169 | 26.3
